Earlier results in patent publication US20140187648A1, “Identifying Subjects in Need of Treatment” (HOWARD FOUNDATION HOLDINGS LTD., priority 2013, published 2014).

Tested on: subjects who exhibit an abnormally low concentration of MP in the central portion of the retina

| Compound | effect on MP (subjects with abnormally low MP in the central portion of the retina) | MP levels outside the central portion of the retina (subjects with abnormally low central MP) | MP levels in the central portion of the retina (subjects with abnormally low central MP, eccentricity 0.25° or less) |
| --- | --- | --- | --- |
| CC1=C[C@H](O)CC(C)(C)[C@H]1/C=C/C(C)=C/C=C/C(C)=C/C=C/C=C(C)/C=C/C=C(C)/C=C/C1=C(C)C[C@@H](O)CC1(C)C [lutein, reference compound] | little effect |  |  |
| meso-zeaxanthin [MZ] |  | little effect | return MP levels in the central portion of the retina substantially to normal |
